# Source: ChEMBL document CHEMBL3991601, “The target landscape of clinical kinase drugs” (Science, 2017)
# Where a name gives a salt, the structure may show the parent alone. Active and inactive are the calls of the source. For most assays here, no stated cut-off is given here; in the data, actives have a measured Kd and inactives only a lower limit.
# How the values were obtained:
# [1] = target: Chromodomain-helicase-DNA-binding protein 4 (Homo sapiens, UniProt Q14839)
# [2] = target: T1, Ephrin type-A receptor 1 (Homo sapiens, UniProt P21709)
# T1 sequence (P21709 whole entry): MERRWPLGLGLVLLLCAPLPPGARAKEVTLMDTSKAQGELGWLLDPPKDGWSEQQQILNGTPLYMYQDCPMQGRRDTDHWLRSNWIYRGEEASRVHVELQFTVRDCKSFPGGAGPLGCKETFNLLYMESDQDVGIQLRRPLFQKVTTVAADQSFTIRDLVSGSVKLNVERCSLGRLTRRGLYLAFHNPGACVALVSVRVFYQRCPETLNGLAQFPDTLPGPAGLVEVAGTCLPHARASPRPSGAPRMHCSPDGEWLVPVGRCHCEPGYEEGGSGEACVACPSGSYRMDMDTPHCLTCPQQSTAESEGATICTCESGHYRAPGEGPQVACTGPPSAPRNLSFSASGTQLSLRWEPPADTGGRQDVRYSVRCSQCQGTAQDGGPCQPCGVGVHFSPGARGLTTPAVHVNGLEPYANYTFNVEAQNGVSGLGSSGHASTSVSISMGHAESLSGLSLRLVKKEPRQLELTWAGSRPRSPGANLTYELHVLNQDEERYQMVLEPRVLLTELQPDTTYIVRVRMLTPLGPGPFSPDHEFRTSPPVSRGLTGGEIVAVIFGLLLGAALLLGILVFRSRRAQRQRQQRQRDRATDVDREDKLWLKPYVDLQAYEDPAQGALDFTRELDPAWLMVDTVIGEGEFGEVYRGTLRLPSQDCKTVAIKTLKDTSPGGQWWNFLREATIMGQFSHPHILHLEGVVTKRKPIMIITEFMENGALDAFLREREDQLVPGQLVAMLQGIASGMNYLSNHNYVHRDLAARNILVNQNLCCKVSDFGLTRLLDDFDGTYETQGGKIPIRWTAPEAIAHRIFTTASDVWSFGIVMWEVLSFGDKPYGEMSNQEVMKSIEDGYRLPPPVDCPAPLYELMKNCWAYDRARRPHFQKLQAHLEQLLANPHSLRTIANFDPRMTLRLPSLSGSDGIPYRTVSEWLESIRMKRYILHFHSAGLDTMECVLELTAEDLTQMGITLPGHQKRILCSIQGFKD
# [3] = target: Interleukin-1 receptor-associated kinase 1 (Homo sapiens, UniProt P51617)
# [4] = target: Mitogen-activated protein kinase kinase kinase kinase 5 (Homo sapiens, UniProt Q9Y4K4)
# [5] = target: Midasin (Homo sapiens, UniProt Q9NU22)
# [6] = target: Protein kinase C delta type (Homo sapiens, UniProt Q05655)
# [7] = target: Protein-tyrosine kinase 2-beta (Homo sapiens, UniProt Q14289)
# [8] = target: Ribosomal protein S6 kinase beta-1 (Homo sapiens, UniProt P23443)
# [9] = target: T2, Thyroid hormone receptor-associated protein 3 (Homo sapiens, UniProt Q9Y2W1)
# T2 sequence (Q9Y2W1 whole entry): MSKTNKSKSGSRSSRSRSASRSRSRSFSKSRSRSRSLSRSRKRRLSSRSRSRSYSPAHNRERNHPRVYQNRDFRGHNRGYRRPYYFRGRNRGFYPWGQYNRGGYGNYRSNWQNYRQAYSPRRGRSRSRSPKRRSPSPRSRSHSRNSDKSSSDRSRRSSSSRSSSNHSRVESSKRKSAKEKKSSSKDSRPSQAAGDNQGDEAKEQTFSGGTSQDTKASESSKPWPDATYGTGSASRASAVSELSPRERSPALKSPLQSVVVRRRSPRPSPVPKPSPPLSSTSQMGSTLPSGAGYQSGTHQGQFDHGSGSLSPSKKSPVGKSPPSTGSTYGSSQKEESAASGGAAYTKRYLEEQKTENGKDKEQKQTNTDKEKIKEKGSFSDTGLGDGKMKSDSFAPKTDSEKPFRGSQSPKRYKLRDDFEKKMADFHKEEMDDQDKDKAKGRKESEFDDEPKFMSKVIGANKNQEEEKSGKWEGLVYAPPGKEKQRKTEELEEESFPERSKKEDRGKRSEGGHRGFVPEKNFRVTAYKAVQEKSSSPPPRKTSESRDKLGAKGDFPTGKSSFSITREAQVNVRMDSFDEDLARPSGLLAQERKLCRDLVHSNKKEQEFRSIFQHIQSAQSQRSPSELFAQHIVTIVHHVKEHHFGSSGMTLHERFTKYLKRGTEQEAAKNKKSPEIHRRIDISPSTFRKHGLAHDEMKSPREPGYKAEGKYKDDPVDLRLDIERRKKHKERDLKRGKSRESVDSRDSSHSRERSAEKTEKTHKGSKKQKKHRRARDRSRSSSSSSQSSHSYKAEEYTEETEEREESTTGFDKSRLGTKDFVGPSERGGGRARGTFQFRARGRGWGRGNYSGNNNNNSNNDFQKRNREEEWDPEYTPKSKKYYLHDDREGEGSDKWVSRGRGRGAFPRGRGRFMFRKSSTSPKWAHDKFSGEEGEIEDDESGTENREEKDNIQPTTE
# Ribosomal protein S6 kinase beta-1, sequence (P23443 whole entry): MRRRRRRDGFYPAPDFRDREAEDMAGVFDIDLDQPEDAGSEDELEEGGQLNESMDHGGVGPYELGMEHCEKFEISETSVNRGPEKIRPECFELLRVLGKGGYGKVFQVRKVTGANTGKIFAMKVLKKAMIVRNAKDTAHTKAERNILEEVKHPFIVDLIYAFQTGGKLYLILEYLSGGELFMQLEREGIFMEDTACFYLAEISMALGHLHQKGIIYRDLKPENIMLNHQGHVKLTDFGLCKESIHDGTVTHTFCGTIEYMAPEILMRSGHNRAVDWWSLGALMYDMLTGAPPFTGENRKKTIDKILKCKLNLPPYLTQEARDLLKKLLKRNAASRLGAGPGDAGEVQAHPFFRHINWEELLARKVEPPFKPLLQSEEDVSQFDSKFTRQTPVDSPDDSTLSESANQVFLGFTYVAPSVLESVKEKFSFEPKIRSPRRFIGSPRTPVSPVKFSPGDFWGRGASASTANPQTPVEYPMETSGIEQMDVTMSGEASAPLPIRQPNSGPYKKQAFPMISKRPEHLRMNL
# Mitogen-activated protein kinase kinase kinase kinase 5, sequence (Q9Y4K4 whole entry): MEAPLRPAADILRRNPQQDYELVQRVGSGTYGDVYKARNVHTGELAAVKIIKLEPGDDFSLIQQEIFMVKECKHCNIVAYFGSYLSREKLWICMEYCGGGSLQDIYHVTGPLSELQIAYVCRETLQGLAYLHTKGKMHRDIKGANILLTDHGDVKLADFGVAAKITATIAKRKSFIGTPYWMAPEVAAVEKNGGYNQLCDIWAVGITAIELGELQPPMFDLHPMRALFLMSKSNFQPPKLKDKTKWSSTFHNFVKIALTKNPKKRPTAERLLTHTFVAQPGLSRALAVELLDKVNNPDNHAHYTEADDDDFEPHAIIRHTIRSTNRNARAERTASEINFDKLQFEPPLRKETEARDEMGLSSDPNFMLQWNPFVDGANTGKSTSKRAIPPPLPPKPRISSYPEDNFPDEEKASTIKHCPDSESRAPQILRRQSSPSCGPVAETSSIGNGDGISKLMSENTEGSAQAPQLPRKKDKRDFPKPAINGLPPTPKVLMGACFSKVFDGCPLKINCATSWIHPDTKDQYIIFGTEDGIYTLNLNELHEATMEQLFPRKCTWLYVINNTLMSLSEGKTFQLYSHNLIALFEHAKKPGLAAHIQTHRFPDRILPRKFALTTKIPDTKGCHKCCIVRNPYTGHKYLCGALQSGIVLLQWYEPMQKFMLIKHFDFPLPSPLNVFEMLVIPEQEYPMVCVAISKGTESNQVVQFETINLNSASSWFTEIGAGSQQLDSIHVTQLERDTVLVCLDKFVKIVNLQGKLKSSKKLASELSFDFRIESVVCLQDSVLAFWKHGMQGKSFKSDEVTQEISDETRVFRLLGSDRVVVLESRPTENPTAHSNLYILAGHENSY
# Protein-tyrosine kinase 2-beta, sequence (Q14289 whole entry): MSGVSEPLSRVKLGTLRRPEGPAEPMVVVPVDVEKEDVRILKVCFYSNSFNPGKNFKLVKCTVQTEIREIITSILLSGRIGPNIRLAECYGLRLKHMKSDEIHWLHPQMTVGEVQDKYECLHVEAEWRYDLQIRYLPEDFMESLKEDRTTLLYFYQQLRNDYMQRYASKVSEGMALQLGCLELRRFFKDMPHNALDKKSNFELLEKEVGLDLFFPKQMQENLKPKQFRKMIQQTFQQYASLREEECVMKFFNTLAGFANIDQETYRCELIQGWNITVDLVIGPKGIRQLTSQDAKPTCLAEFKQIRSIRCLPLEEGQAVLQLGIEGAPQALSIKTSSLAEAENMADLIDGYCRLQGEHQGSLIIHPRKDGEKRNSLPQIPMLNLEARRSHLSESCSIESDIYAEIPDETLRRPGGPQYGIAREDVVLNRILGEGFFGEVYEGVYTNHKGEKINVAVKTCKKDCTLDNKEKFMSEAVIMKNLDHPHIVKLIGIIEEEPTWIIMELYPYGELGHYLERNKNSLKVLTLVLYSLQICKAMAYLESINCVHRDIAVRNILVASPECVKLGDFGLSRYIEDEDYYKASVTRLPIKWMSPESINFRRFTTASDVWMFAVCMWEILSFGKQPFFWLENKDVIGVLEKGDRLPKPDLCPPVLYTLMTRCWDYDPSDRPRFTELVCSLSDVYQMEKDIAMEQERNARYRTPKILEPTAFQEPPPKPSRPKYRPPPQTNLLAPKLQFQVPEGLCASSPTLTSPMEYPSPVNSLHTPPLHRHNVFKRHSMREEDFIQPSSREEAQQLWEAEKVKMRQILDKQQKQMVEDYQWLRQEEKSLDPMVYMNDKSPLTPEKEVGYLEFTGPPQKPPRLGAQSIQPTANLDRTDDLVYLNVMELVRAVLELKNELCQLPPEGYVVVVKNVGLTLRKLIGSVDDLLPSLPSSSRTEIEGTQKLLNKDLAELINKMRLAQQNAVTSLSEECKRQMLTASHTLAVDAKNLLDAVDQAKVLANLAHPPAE
# Chromodomain-helicase-DNA-binding protein 4, sequence (Q14839 whole entry): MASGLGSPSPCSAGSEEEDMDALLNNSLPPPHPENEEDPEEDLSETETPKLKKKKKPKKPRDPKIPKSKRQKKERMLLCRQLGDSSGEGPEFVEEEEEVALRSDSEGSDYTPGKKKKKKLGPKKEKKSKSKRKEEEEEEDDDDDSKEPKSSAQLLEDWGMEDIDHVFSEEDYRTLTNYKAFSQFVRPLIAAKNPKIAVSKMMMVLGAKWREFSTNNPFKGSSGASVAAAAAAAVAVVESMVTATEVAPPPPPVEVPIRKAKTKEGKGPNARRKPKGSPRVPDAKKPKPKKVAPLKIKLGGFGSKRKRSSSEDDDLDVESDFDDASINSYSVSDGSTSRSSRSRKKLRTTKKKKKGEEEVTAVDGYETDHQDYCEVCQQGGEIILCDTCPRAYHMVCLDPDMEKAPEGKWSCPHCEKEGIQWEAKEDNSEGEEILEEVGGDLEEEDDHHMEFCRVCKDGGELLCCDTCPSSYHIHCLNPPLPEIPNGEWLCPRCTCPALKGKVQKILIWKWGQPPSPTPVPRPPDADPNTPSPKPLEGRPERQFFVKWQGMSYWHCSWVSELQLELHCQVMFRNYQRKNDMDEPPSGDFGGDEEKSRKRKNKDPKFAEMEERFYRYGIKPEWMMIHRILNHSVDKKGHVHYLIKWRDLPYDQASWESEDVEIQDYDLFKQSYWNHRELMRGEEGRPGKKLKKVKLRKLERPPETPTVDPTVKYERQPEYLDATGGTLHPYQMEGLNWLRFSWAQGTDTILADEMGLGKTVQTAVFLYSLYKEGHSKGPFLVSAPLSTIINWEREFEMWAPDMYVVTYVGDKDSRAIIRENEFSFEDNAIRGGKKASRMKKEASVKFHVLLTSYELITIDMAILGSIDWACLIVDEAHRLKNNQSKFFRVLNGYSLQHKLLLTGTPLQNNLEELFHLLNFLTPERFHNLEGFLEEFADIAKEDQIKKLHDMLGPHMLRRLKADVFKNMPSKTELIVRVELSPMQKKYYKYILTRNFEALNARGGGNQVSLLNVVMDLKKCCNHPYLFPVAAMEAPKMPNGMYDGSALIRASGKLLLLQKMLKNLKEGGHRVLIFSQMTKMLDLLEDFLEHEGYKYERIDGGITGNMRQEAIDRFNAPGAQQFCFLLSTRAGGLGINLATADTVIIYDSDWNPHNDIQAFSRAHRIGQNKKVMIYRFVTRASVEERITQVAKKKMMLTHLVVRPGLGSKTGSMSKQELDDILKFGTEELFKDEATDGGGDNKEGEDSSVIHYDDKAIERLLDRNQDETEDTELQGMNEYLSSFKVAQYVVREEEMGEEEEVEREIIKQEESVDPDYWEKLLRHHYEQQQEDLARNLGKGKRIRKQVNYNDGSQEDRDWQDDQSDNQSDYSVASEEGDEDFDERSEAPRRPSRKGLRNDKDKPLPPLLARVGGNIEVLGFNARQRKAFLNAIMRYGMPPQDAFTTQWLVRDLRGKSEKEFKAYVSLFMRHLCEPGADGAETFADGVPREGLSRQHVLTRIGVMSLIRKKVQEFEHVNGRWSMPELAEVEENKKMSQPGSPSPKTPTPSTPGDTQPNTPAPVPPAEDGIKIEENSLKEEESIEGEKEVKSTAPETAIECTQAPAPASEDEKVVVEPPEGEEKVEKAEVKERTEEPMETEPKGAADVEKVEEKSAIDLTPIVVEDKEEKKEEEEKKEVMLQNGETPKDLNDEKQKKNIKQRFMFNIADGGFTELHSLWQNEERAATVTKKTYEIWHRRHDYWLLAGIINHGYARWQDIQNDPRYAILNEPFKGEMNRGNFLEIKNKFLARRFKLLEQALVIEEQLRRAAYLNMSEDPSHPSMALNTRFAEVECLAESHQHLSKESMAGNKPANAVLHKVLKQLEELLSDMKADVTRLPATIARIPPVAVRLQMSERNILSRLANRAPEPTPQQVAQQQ
# Interleukin-1 receptor-associated kinase 1, sequence (P51617 whole entry): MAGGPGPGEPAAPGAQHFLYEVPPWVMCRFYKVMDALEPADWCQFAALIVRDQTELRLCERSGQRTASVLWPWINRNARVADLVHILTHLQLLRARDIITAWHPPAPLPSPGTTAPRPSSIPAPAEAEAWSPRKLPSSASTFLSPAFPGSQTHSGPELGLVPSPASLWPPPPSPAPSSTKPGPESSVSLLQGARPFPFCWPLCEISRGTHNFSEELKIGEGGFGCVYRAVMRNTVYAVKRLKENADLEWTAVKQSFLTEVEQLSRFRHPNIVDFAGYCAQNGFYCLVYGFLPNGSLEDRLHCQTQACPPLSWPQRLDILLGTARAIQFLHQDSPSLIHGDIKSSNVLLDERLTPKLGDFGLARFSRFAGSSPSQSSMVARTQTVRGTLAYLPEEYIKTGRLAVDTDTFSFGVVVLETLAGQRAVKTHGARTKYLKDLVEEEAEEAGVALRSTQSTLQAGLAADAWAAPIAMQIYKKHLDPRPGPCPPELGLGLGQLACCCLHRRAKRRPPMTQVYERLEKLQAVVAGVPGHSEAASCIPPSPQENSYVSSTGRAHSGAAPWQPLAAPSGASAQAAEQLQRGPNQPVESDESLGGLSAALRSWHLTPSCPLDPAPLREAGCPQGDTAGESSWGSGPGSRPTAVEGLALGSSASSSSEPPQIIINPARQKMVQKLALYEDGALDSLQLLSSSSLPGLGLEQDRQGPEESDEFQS
SMILES,Kd [1],Kd [2],Kd [3],Kd [4],Kd [5],Kd [6],Kd [7],Kd [8],Kd [9]
C[C@H]1CNCCCN1S(=O)(=O)c1cccc2cncc(F)c12,> 30 µM (inactive),> 30 µM (inactive),> 30 µM (inactive),> 30 µM (inactive),> 30 µM (inactive),2.47 µM (active),> 30 µM (inactive),> 30 µM (inactive),> 30 µM (inactive)
Cc1nc(NC(=O)N2CCC[C@H]2C(N)=O)sc1-c1ccnc(C(C)(C)C(F)(F)F)c1 [ALPELISIB],> 30 µM (inactive),> 30 µM (inactive),> 30 µM (inactive),> 30 µM (inactive),> 30 µM (inactive),> 30 µM (inactive),> 30 µM (inactive),> 30 µM (inactive),> 30 µM (inactive)
Cn1cnc2c(F)c(Nc3ccc(Br)cc3F)c(C(=O)NOCCO)cc21 [BINIMETINIB],> 30 µM (inactive),> 30 µM (inactive),> 30 µM (inactive),> 30 µM (inactive),> 30 µM (inactive),> 30 µM (inactive),> 30 µM (inactive),> 30 µM (inactive),> 30 µM (inactive)
CCn1c(C(=O)N(C2CC2)C2CC2)cc2c3c(ncn3C)c(Nc3cc(C)n(C)n3)nc21 [BMS-911543],> 30 µM (inactive),> 30 µM (inactive),> 30 µM (inactive),> 30 µM (inactive),> 30 µM (inactive),> 30 µM (inactive),> 30 µM (inactive),> 30 µM (inactive),> 30 µM (inactive)
COc1cc2ncnc(Oc3cccc(NC(=O)Nc4cc(C(C)(C)C(F)(F)F)on4)c3)c2cc1OC [CEP-32496],> 30 µM (inactive),> 30 µM (inactive),> 30 µM (inactive),20.1 µM (active),> 30 µM (inactive),> 30 µM (inactive),> 30 µM (inactive),> 30 µM (inactive),> 30 µM (inactive)
Cc1cc(Nc2ncc(Cl)c(Nc3ccccc3S(=O)(=O)C(C)C)n2)c(OC(C)C)cc1C1CCNCC1 [CERITINIB],> 30 µM (inactive),> 30 µM (inactive),> 30 µM (inactive),> 30 µM (inactive),> 30 µM (inactive),> 30 µM (inactive),18.4 µM (active),> 30 µM (inactive),> 30 µM (inactive)
COCC(=O)NC/C=C/c1ccc2ncnc(Nc3ccc(Oc4ccc(C)nc4)c(C)c3)c2c1 [CP-724714],> 30 µM (inactive),> 30 µM (inactive),> 30 µM (inactive),> 30 µM (inactive),> 30 µM (inactive),> 30 µM (inactive),> 30 µM (inactive),> 30 µM (inactive),> 30 µM (inactive)
C#Cc1cccc(Nc2ncnc3cc(OC)c(OCCCCCCC(=O)NO)cc23)c1 [CUDC-101],> 30 µM (inactive),> 30 µM (inactive),> 30 µM (inactive),> 30 µM (inactive),> 30 µM (inactive),> 30 µM (inactive),> 30 µM (inactive),> 30 µM (inactive),> 30 µM (inactive)
CCS(=O)(=O)N1CCN(c2ccc(Nc3ncc(C(N)=O)c(NC4CC4)n3)cc2)CC1 [Cerdulatinib Hydrochloride],> 30 µM (inactive),> 30 µM (inactive),> 30 µM (inactive),19.2 µM (active),> 30 µM (inactive),3.82 µM (active),> 30 µM (inactive),> 30 µM (inactive),> 30 µM (inactive)
COc1ccc(S(=O)(=O)N(C(C)=O)c2ccccc2/C=C/c2cc[n+]([O-])cc2)cc1 [HMN-214],> 30 µM (inactive),> 30 µM (inactive),> 30 µM (inactive),> 30 µM (inactive),> 30 µM (inactive),> 30 µM (inactive),> 30 µM (inactive),> 30 µM (inactive),> 30 µM (inactive)
NC1(c2ccc(-c3nc4ccn5c(=O)[nH]nc5c4cc3-c3ccccc3)cc2)CCC1 [MK-2206],> 30 µM (inactive),> 30 µM (inactive),> 30 µM (inactive),> 30 µM (inactive),> 30 µM (inactive),> 30 µM (inactive),> 30 µM (inactive),> 30 µM (inactive),> 30 µM (inactive)
Cn1cc(-c2cnc3ccc4ccc(CS(=O)(=O)NCc5ccccn5)cc4c(=O)c3c2)cn1 [MK-8033],> 30 µM (inactive),> 30 µM (inactive),> 30 µM (inactive),> 30 µM (inactive),> 30 µM (inactive),> 30 µM (inactive),> 30 µM (inactive),> 30 µM (inactive),> 30 µM (inactive)
FC(F)(F)c1ccc(/C=C/c2nc(COc3ccc(CCCCn4ccnn4)cc3)co2)cc1 [MUBRITINIB],> 30 µM (inactive),> 30 µM (inactive),> 30 µM (inactive),> 30 µM (inactive),> 30 µM (inactive),> 30 µM (inactive),> 30 µM (inactive),> 30 µM (inactive),> 30 µM (inactive)
Cc1cnc(NC(=O)Nc2cc(Br)c(C)cc2OC[C@@H]2CNCCO2)cn1 [RABUSERTIB],> 30 µM (inactive),> 30 µM (inactive),> 30 µM (inactive),> 30 µM (inactive),> 30 µM (inactive),> 30 µM (inactive),> 30 µM (inactive),> 30 µM (inactive),> 30 µM (inactive)
CO[C@H]1C[C@@H]2CC[C@@H](C)[C@@](O)(O2)C(=O)C(=O)N2CCCC[C@H]2C(=O)O[C@H]([C@H](C)C[C@@H]2CC[C@@H](OP(C)(C)=O)[C@H](OC)C2)CC(=O)[C@H](C)/C=C(\C)[C@@H](O)[C@@H](OC)C(=O)[C@H](C)C[C@H](C)/C=C/C=C/C=C/1C [RIDAFOROLIMUS],> 30 µM (inactive),> 30 µM (inactive),> 30 µM (inactive),> 30 µM (inactive),> 30 µM (inactive),> 30 µM (inactive),> 30 µM (inactive),> 30 µM (inactive),> 30 µM (inactive)
N#CC1(c2ccc(NC(=O)c3cccnc3NCc3ccncc3)cc2)CCCC1 [RIVOCERANIB],> 30 µM (inactive),> 30 µM (inactive),> 30 µM (inactive),> 30 µM (inactive),> 30 µM (inactive),> 30 µM (inactive),> 30 µM (inactive),> 30 µM (inactive),> 30 µM (inactive)
O=c1[nH]ccc2cc(OC3CCNCC3)ccc12 [SAR-407899 FREE BASE],> 30 µM (inactive),> 30 µM (inactive),> 30 µM (inactive),> 30 µM (inactive),> 30 µM (inactive),0.021 µM (active),> 30 µM (inactive),> 30 µM (inactive),> 30 µM (inactive)
